# Target: T1, pY705-STAT3 in PBMC (Homo sapiens, UniProt P40763)
# T1 construct: Cryopreserved Peripheral Blood Mononuclear Cells (PBMC) are from AllCells; host or cells: cryopreserved PBMC
# Assay: MSD-pSTAT-PBMC Assay (pSTAT3, IL-6 stimulated)
# Format: cell-based
# Details: PBMC, compound 3 hrs, then 10 ng/mL IL-6 for 10 min; Table 115; read-out: STAT3
# Method in brief: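 PBMC (human, cryopreserved, overnight recovery) + cpd 3 hrs → IL-6 10 ng/mL (STAT3) or IL-4 1 ng/mL (STAT6) ×10 min → lysis with protease/phosphatase inhibitors → MSD capture/phospho detection. IC50, variable slope, DMSO-normalized.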
# T1 sequence (P40763 whole entry): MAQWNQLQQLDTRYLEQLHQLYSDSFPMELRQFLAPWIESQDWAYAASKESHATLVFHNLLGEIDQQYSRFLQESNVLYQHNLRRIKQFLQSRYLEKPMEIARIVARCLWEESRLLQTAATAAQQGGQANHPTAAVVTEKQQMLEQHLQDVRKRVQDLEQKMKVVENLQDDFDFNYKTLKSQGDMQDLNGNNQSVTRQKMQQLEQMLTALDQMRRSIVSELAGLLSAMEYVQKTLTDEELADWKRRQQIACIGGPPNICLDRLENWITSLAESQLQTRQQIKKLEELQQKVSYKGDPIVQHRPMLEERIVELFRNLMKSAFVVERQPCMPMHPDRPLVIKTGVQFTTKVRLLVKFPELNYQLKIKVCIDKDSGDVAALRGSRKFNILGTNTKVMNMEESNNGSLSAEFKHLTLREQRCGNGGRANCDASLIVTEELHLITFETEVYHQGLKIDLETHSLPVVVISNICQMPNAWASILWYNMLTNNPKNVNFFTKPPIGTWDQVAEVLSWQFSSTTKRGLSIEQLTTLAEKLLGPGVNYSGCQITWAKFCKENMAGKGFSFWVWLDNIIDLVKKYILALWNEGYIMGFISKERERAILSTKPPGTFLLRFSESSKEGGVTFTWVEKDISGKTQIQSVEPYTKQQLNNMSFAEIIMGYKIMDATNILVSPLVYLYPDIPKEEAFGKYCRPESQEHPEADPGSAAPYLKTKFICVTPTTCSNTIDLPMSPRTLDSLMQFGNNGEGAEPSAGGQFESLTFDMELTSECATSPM
row,SMILES,IC50 [nM]
1,"CCCOC(=O)[C@H](C)NP(=O)(Oc1ccccc1)[C@H](F)c1ccc2sc(C(=O)N[C@H]3CCC[C@H]4CC[C@@H](C(=O)N5CC(c6cnccc6N6CC(C#N)C6)C5)N4C3=O)cc2c1 (stereo partly drawn) [Compound 1061, propyl (((S)-(2-(((3S,6S,9aS)-3-(3-(4-(3-cyanoazetidin-1-yl)pyridin-3-yl)azetidine-1-carbonyl)-5-oxooctahydro-1H-pyrrolo[1,2-a]azepin-6-yl)carbamoyl)benzo [b]thiophen-5-yl)fluoromethyl) (phenoxy)phosphoryl)-L-alaninate]",100 to 1000
2,"CCCOC(=O)[C@H](C)NP(=O)(Oc1ccccc1)[C@@H](F)c1ccc2sc(C(=O)N[C@H]3CCC[C@H]4CC[C@@H](C(=O)N5CC(c6cnccc6N6CC(OC)C6)C5)N4C3=O)cc2c1 (stereo partly drawn) [Compound 1062, propyl (((R)-fluoro(2-(((3S,6S,9aS)-3-(3-(4-(3-methoxyazetidin-1-yl)pyridin-3-yl)azetidine-1-carbonyl)-5-oxooctahydro-1H-pyrrolo[1,2-a]azepin-6-yl)carbamoyl)benzo [b]thiophen-5-yl)methyl)(phenoxy)phosphoryl)-L-alaninate]",100 to 1000
3,"CCCOC(=O)[C@H](C)NP(=O)(Oc1ccccc1)[C@H](F)c1ccc2sc(C(=O)N[C@H]3CCC[C@H]4CC[C@@H](C(=O)N5CC(c6cnccc6N6CC(OC)C6)C5)N4C3=O)cc2c1 (stereo partly drawn) [Compound 1063, propyl (((S)-fluoro(2-(((3S,6S,9aS)-3-(3-(4-(3-methoxyazetidin-1-yl)pyridin-3-yl)azetidine-1-carbonyl)-5-oxooctahydro-1H-pyrrolo[1,2-a]azepin-6-yl)carbamoyl)benzo [b]thiophen-5-yl)methyl)(phenoxy)phosphoryl)-L-alaninate]",< 100
4,"CCCOC(=O)[C@H](C)NP(=O)(Oc1ccccc1)[C@@H](F)c1ccc2sc(C(=O)N[C@H]3CCC[C@H]4CC[C@@H](C(=O)N5CC(c6cnccc6N6CCOCC6)C5)N4C3=O)cc2c1 (stereo partly drawn) [Compound 1064, propyl (((R)-fluoro(2-(((3S,6S,9aS)-3-(3-(4-morpholinopyridin-3-yl)azetidine-1-carbonyl)-5-oxooctahydro-1H-pyrrolo[1,2-a]azepin-6-yl)carbamoyl)benzo [b]thiophen-5-yl)methyl)(phenoxy)phosphoryl)-L-alaninate]",< 100
5,"CCCOC(=O)[C@H](C)NP(=O)(Oc1ccccc1)[C@H](F)c1ccc2sc(C(=O)N[C@H]3CCC[C@H]4CC[C@@H](C(=O)N5CC(c6cnccc6N6CCOCC6)C5)N4C3=O)cc2c1 (stereo partly drawn) [Compound 1065, propyl (((S)-fluoro(2-(((3S,6S,9aS)-3-(3-(4-morpholinopyridin-3-yl)azetidine-1-carbonyl)-5-oxooctahydro-1H-pyrrolo[1,2-a]azepin-6-yl)carbamoyl)benzo [b]thiophen-5-yl)methyl)(phenoxy)phosphoryl)-L-alaninate]",< 100
6,"CCCOC(=O)[C@H](C)NP(=O)(Oc1ccccc1)[C@@H](F)c1ccc2sc(C(=O)N[C@H]3CCC[C@H]4CC[C@@H](C(=O)N5CC(c6cncnc6N6CCOCC6)C5)N4C3=O)cc2c1 (stereo partly drawn) [Compound 1066, propyl (((R)-fluoro(2-(((3S,6S,9aS)-3-(3-(4-morpholino-pyrimidin-5-yl)azetidine-1-carbonyl)-5-oxooctahydro-1H-pyrrolo[1,2-a]azepin-6-yl)carbamoyl)benzo [b]thiophen-5-yl)methyl)(phenoxy)phosphoryl)-L-alaninate]",100 to 1000
7,"CCCOC(=O)[C@H](C)NP(=O)(Oc1ccccc1)[C@H](F)c1ccc2sc(C(=O)N[C@H]3CCC[C@H]4CC[C@@H](C(=O)N5CC(c6cncnc6N6CCOCC6)C5)N4C3=O)cc2c1 (stereo partly drawn) [Compound 1067, propyl (((S)-fluoro(2-(((3S,6S,9aS)-3-(3-(4-morpholinopyrimidin-5-yl)azetidine-1-carbonyl)-5-oxooctahydro-1H-pyrrolo[1,2-a]azepin-6-yl)carbamoyl)benzo [b]thiophen-5-yl)methyl)(phenoxy)phosphoryl)-L-alaninate]",100 to 1000
8,CCCOC(=O)[C@H](C)NP(=O)(Oc1ccccc1)[C@H](F)c1ccc2sc(C(=O)N[C@H]3CCC[C@H]4CC[C@@H](C(=O)N5CC(c6cncnc6N(C)C)C5)N4C3=O)cc2c1 (some centres unmarked) [Compound 1068],< 100
9,CCCOC(=O)[C@H](C)NP(=O)(Oc1ccccc1)[C@@H](F)c1ccc2sc(C(=O)N[C@H]3CCC[C@H]4CC[C@@H](C(=O)N5CC(c6cncnc6N(C)C)C5)N4C3=O)cc2c1 (some centres unmarked) [Compound 1069],< 100
10,"CCCOC(=O)[C@H](C)NP(=O)(Cc1ccc2sc(C(=O)N[C@H]3CCC[C@H]4CC[C@@H](C(=O)N5CC(c6cncnc6N(C)C)C5)N4C3=O)cc2c1)Oc1ccccc1 (stereo partly drawn) [Compound 1070, propyl (((2-(((3S,6S,9aS)-3-(3-(4-(dimethylamino)pyrimidin-5-yl)azetidine-1-carbonyl)-5-oxooctahydro-1H-pyrrolo[1,2-a]azepin-6-yl)carbamoyl)benzo [b]thiophen-5-yl)methyl)(phenoxy)phosphoryl)-L-alaninate]",< 100
11,"CCCOC(=O)[C@H](C)NP(=O)(Oc1ccccc1)[C@@H](F)c1ccc2sc(C(=O)N[C@H]3CCC[C@H]4CC[C@@H](C(=O)N5CC(c6cncnc6N6CC[C@H]6COC)C5)N4C3=O)cc2c1 (stereo partly drawn) [Compound 1071, propyl (((R)-fluoro(2-(((3S,6S,9aS)-3-(3-(4-((S)-2-(methoxymethyl)azetidin-1-yl)pyrimidin-5-yl)azetidine-1-carbonyl)-5-oxooctahydro-1H-pyrrolo[1,2-a]azepin-6-yl)carbamoyl)benzo [b]thiophen-5-yl)methyl)(phenoxy)phosphoryl)-L-alaninate]",< 100
12,"CCCOC(=O)[C@H](C)NP(=O)(Cc1ccc2sc(C(=O)N[C@H]3CCC[C@H]4CC[C@@H](C(=O)N5CC(c6cncnc6N6CC[C@H]6COC)C5)N4C3=O)cc2c1)Oc1ccccc1 (stereo partly drawn) [Compound 1072, propyl (((2-(((3S,6S,9aS)-3-(3-(4-((S)-2-(methoxymethyl)azetidin-1-yl)pyrimidin-5-yl)azetidine-1-carbonyl)-5-oxooctahydro-1H-pyrrolo[1,2-a]azepin-6-yl)carbamoyl)benzo [b]thiophen-5-yl)methyl)(phenoxy)phosphoryl)-L-alaninate]",< 100
13,"CCCOC(=O)[C@H](C)NP(=O)(Oc1ccccc1)[C@@H](F)c1ccc2sc(C(=O)N[C@H]3CCC[C@H]4CC[C@@H](C(=O)N5CC(c6cncc(F)c6OC)C5)N4C3=O)cc2c1 (stereo partly drawn) [Compound 1073, propyl (((R)-fluoro(2-(((3S,6S,9aS)-3-(3-(5-fluoro-4-methoxypyridin-3-yl)azetidine-1-carbonyl)-5-oxooctahydro-1H-pyrrolo[1,2-a]azepin-6-yl)carbamoyl)benzo [b]thiophen-5-yl)methyl)(phenoxy)phosphoryl)-L-alaninate]",100 to 1000
14,"CCCOC(=O)[C@H](C)NP(=O)(Cc1ccc2sc(C(=O)N[C@H]3C[C@@H](C)C[C@H]4CC[C@@H](C(=O)N5CC(c6cncnc6N6CCC6)C5)N4C3=O)cc2c1)Oc1ccccc1 (stereo partly drawn) [Compound 1074, propyl (((2-(((3S,6S,8R,9aR)-3-(3-(4-(azetidin-1-yl)pyrimidin-5-yl)azetidine-1-carbonyl)-8-methyl-5-oxooctahydro-1H-pyrrolo[1,2-a]azepin-6-yl)carbamoyl)benzo [b]thiophen-5-yl)methyl)(phenoxy)phosphoryl)-L-alaninate]",< 100
15,CCCOC(=O)[C@H](C)NP(=O)(Oc1ccccc1)[C@@H](F)c1ccc2sc(C(=O)N[C@H]3CCC[C@H]4CC[C@@H](C(=O)N5CC(c6cncnc6N6CCC6)C5)N4C3=O)cc2c1 (some centres unmarked) [Compound 1075],< 100
16,CCCOC(=O)[C@H](C)NP(=O)(Oc1ccccc1)[C@H](F)c1ccc2sc(C(=O)N[C@H]3CCC[C@H]4CC[C@@H](C(=O)N5CC(c6cncnc6N6CCC6)C5)N4C3=O)cc2c1 (some centres unmarked) [Compound 1076],< 100
17,CCCOC(=O)[C@H](C)NP(=O)(Oc1ccccc1)[C@@H](F)c1ccc2sc(C(=O)N[C@H]3C[C@@H](C)C[C@H]4CC[C@@H](C(=O)N5CC(c6cncnc6N6CCC6)C5)N4C3=O)cc2c1 (some centres unmarked) [Compound 1077],< 100
18,CCCOC(=O)[C@H](C)NP(=O)(Oc1ccccc1)[C@H](F)c1ccc2sc(C(=O)N[C@H]3C[C@@H](C)C[C@H]4CC[C@@H](C(=O)N5CC(c6cncnc6N6CCC6)C5)N4C3=O)cc2c1 (some centres unmarked) [Compound 1078],< 100
19,"CC(C)CC(=O)SCCOP(=O)(Cc1ccc2sc(C(=O)N[C@H]3CCC[C@H]4CC[C@@H](C(=O)N5CC(c6cccnc6)C5)N4C3=O)cc2c1)OCCSC(=O)CC(C)C [Compound 1084, S,S′-(((((2-(((3S,6S,9aS)-5-oxo-3-(3-(pyridin-3-yl)azetidine-1-carbonyl)octahydro-1H-pyrrolo[1,2-a]azepin-6-yl)carbamoyl)benzo [b]thiophen-5-yl)methyl)phosphoryl)bis(oxy))bis(ethane-2,1-diyl)) bis(3-methylbutanethioate)]",100 to 1000

# Same assay, conditions: STAT3, PBMC, compound 3 hrs, then 10 ng/mL IL-6 for 10 min; Table 115
row,SMILES,IC50 [nM]
1,"CCCOC(=O)[C@H](C)NP(=O)(Cc1ccc2sc(C(=O)N[C@H]3C[C@H](C)C[C@H]4CC[C@@H](C(=O)N5CC(c6cnccc6N(C)C)C5)N4C3=O)cc2c1)Oc1ccccc1 (stereo partly drawn) [Compound 1079, propyl (((2-(((3S,6S,8S,9aR)-3-(3-(4-(dimethylamino)pyridin-3-yl)azetidine-1-carbonyl)-8-methyl-5-oxooctahydro-1H-pyrrolo[1,2-a]azepin-6-yl)carbamoyl)benzo [b]thiophen-5-yl)methyl)(phenoxy)phosphoryl)-L-alaninate]",< 100

# — patent publication US20250215029A1 (Recludix Pharma, Inc., priority 2022, published 2025)
